The subject of experiment [1] is human neutrophils. Details: method as in number not given. The following applies: ref number not given; cited from earlier work.
The target in experiment [2] is T1, TLR4 receptor (Homo sapiens, UniProt O00206+Q9Y6Y9).
T1 construct: host or cells: HEK-Blue hTLR4 (HEK293 reporter cells)
Briefly: HEK-Blue hTLR4 stimulation, SEAP reporter. It is filed as cell-based. The following applies: HEK-Blue hTLR4, BacSp222 0.016 to 2 μM without LPS, 17 h. The method, then:
The eukaryotic cells were cultured according to the methods described in previous publications. , The murine monocyte/macrophage RAW 264.7 cell line (ATCC TIB-71) and the murine monocyte/macrophage P388.D1 cell line (ATCC CCL-46) were purchased from the American Type Culture Collection (ATCC, Manassas, VA, USA). Human TLR4/NF-κB/SEAP (HEK-Blue hTLR4) and human TLR2 + TLR6/NF-κB/SEAP (HEK-Blue hTLR2/TLR6) reporter HEK293 cells were obtained from InvivoGen (San Diego, CA, USA). The passages of all TLR reporter HEK293 cells ranged from 7 to 15. All cells used in experiments were cultured under the following conditions: 5% CO2, 37 °C, and >95% humidity. RAW 264.7 and P388.D1 cells were cultured in Dulbecco’s modified Eagle’s medium (DMEM) containing 4.5 g/L glucose (GIBCO, Paisley, UK) and 5% (v/v) fetal bovine serum (FBS, GIBCO, Paisley, UK), whereas HEK-Blue hTLR4 and HEK-Blue hTLR2/TLR6 were cultured in DMEM containing 4.5 g/L glucose, 10% (v/v) FBS, 50 units/mL penicillin, and 50 μg/mL streptomycin (both from GIBCO, Paisley, UK). […]
Measurement of the activity of SEAP, secreted by the HEK-Blue cells to the media, was conducted as described previously. […] Then, the plate was incubated at 37 °C for 1 h in the dark, and the absorbance was measured at 620 nm using a Synergy H1 Hybrid microplate reader controlled by Gene5 version 2.00.18 software (BIOTEK Instruments, Winooski, VT, USA). […]

The subject of experiment [3] is FPR2. Details: method as in number not given. The following applies: ref number not given; cited from earlier work.
The subject of experiment [4] is ATCC 25923, ATCC 29663, ATCC 6633, and ATCC 4698. As to the kind of experiment: Residual bactericidal activity, radial diffusion assay. The experiment is classed as cell-based. The following applies: 10 or 50 μM BacSp222, 16 h, n = 3. The procedure: The residual bactericidal activity of BacSp222 after preincubation with different LPS serotypes and at different mass proportions was determined using radial diffusion assay toward the following bacteria: ATCC 25923, ATCC 29663, ATCC 6633, and ATCC 4698. BacSp222 at final concentrations of 10 μM (for and ) or 50 μM (for and ) was preincubated in PBS without Ca^2+ and Mg^2+ for 15 min at 37 °C with LPS O55:B5 (IEC) or O111:B4 (PE and IEC) at proportions equivalent to 1:1 or 1:17 mass ratios (BacSp222:LPS). After preincubation, 5 μL aliquots of the solutions were dispensed as drops at different sites of soft Mueller–Hinton Broth II (MHBII, Merck, Darmstadt, Germany) plates containing 0.75% (w/v) agarose and a suspension of the tested bacteria strains. After liquid preparations were entered into the solid medium, the plates were incubated at 37 °C for 16 h, and the antibacterial activity of the studied samples was determined as the diameter of the bacterial growth inhibition zone. In each experiment, the appropriate controls were applied on the plate, and they comprised adequate amounts of BacSp222 and LPS not incubated together.

In experiment [5] the test system is TLR2/TLR6 heterodimer. The following applies: cited from earlier work. The source says: A good example of such a multifunctional and immunomodulatory bacteriocin is the peptide BacSp222, produced by an opportunistic canine pathogen, strain 222. BacSp222 is a 50 amino acid long linear peptide encoded on a plasmid and is produced without a leader sequence, retaining a formylated N-terminal methionine.

Ends that are not written are not given here. * marks the point of attachment. For = O=C*

T1 sequence (O00206 24-839): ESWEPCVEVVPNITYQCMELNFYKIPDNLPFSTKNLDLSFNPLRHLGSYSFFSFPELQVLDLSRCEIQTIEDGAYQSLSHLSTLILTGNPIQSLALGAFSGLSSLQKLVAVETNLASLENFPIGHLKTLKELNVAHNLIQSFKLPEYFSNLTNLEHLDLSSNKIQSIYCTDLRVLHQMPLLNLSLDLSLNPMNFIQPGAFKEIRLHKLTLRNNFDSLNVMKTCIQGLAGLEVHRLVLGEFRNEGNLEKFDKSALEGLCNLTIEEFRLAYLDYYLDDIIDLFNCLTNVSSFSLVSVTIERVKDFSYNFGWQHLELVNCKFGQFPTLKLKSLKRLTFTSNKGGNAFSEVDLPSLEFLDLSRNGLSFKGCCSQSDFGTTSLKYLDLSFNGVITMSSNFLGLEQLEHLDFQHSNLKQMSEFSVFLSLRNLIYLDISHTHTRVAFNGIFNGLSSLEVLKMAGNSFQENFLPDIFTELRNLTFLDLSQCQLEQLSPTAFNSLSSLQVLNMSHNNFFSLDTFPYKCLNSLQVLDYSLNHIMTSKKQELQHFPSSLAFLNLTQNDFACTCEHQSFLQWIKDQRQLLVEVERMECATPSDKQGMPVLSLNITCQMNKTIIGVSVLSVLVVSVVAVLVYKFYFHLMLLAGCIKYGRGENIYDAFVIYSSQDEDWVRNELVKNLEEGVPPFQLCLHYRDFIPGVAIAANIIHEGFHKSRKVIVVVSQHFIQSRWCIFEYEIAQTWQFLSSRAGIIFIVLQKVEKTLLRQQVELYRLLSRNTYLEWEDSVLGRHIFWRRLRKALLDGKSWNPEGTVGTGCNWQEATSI
T1 sequence (Q9Y6Y9 17-160 limits assumed): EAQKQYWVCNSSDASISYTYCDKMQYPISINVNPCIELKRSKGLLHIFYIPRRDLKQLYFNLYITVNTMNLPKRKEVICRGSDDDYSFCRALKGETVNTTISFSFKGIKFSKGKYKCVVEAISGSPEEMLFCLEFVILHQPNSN

Take “For-MAGLLRFLLSKGRALYNWAKSHVGKVWEWLKSGATYEQIKEWIENALGWR [BacSp222]”: in experiment [1], the “activation of human neutrophils (ROS, NETs)” value is “cannot activate human neutrophils to produce reactive oxygen species (ROS) and induce the production of extracellular neutrophil traps (NETs)”. Also, in experiment [2], the “stimulation of TLR4 by BacSp222 alone” value is recorded as “none of the tested BacSp222 concentrations stimulated the TLR4 receptors”. The “activation of FPR2” value in experiment [3] is recorded as “cannot activate”. Besides, the “effect of LPS on bactericidal potential of BacSp222” value in experiment [4] (17-fold mass excess of LPS (1:17), all strains but one exception) is given as “completely inhibited the killing potential of BacSp222”; in experiment [4] (BacSp222:LPS 1:1 mass ratio, all LPS preparations, all four strains, preincubated 15 min 37 °C, peptide referred to as "bacteriocin"/"the peptide"), “only marginally reduces the bactericidal potential of the peptide”. For the same substance, the “affinity for TLR2/TLR6 heterodimer vs synthetic ligands” value in experiment [5] (kinetic studies, vs ligands based on lipoteichoic acids or lipopeptides, ref number not given) was “lower affinity for the TLR2/TLR6 heterodimer than synthetic ligands”. The “recognition by TLR2/TLR6” value in experiment [5] (ref our recent studies (ref 15)) was “recognized by the TLR2/TLR6 receptor heterodimer”.
